For 13 molecules, IC50 and inhibition results are on record in patent publication US9828379B2 (priority 2013, dated 2017).

For assay [1], the target named is T1, ABHD6 (Mus musculus, UniProt Q8R2Y0).
T1 sequence (Q8R2Y0 1-336): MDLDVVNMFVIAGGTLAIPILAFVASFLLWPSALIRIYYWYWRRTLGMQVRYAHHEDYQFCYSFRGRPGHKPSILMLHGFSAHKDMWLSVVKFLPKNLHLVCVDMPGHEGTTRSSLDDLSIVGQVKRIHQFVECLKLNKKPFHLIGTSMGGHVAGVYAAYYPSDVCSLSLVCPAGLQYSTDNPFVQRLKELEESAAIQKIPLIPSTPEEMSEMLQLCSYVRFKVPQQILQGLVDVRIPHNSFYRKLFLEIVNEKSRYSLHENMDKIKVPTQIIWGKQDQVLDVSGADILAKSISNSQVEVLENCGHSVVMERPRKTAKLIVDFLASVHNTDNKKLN
Nature of the assay: biochemical. The following applies: in vitro competitive ABPP.

The target in assay [2] is T2, FAAH (Mus musculus, UniProt O08914).
T2 sequence (O08914 1-579): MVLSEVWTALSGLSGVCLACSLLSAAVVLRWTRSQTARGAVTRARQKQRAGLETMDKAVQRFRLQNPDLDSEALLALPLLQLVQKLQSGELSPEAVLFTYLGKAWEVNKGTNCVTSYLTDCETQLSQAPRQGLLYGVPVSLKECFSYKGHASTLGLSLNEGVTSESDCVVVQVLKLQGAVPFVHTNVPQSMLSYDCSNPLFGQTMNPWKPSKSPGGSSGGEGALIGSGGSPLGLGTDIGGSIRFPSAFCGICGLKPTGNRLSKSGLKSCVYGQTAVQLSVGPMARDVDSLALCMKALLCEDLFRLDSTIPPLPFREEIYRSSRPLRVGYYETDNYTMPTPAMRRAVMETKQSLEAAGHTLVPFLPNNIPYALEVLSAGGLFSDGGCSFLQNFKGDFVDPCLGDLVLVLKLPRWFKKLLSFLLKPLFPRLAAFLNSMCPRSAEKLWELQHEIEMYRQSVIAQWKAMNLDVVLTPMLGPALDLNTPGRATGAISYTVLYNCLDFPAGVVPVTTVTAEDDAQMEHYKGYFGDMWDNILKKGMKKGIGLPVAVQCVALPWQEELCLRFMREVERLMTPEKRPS
In words: biochemical. To be noted: in vitro competitive ABPP.

For assay [3], the target named is T3, MAGL (Mus musculus, UniProt O35678).
T3 sequence (O35678 1-303): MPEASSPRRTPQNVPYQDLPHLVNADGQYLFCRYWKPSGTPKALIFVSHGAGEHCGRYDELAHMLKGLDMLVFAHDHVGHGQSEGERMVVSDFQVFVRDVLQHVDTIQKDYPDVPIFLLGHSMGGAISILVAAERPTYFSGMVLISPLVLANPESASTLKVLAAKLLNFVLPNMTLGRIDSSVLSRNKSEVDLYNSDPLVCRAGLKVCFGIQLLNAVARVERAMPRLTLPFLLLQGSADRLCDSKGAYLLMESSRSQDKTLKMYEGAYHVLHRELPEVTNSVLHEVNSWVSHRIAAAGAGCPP
Nature of the assay: biochemical. To be noted: mouse; in vitro competitive ABPP; read-out: Mouse (IC50 value, nM) MAGL.

Assay [4] deals with T1, ABHD6. In words: In vitro competitive activity-based protein profiling (Table 2, % inhibition at 1 μM). The assay is classed as biochemical. The following applies: read-out: % Inhibition at 1 μM ABHD6.
For assay [5], the target named is T2, FAAH. The description is as above. The class given is biochemical. The following applies: read-out: % Inhibition at 1 μM FAAH.
In assay [6] the target is T3, MAGL. Described as above. The class given is biochemical. The following applies: read-out: % Inhibition at 1 μM MAGL. The protocol: After 30 min, FP—Rh (1.0 μL, 50 μM in DMSO) was added and the mixture was incubated for another 30 min at 37° C. Reactions were quenched with SDS loading buffer (50 μL-4×) and run on SDS-PAGE.
Cell lysates were diluted with mock proteomes for use in competitive ABPP experiments.

The structures appear in SMILES notation. Some results are limits rather than exact numbers.

On to `O=C(OC(C(F)(F)F)C(F)(F)F)N1CC2CN(Cc3ccc(Cl)cc3N3CCN4CCC[C@@H]4C3)CC2C1` (stereo partly drawn) [Example 35, 1,1,1,3,3,3-Hexafluoropropan-2-yl 5-(4-chloro-2-((R)-hexahydropyrrolo[1,2-a]pyrazin-2(1H)-yl)benzyl)-hexahydropyrrolo[3,4-c]pyrrole-2(1H)-carboxylate], for which the IC50 (in general, the concentration at which inhibition is half-maximal) at ABHD6 [1] is 1000 to 10000 nM; at FAAH [2], > 10000 nM; on MAGL [3] it was 100 to 1000 nM. Further, the inhibition (as a rule, the percentage by which the read-out fell short of the control) at 1 µM on ABHD6 [4] was < 25%; on FAAH [5] it was < 25%; on MAGL [6] it was > 75%.
Consider `CCN1CCN(c2c(C)cccc2CN2CC3CN(C(=O)OC(C(F)(F)F)C(F)(F)F)CC3C2)CC1` (stereo not drawn) [Example 148, 1,1,1,3,3,3-hexafluoropropan-2-yl 5-[[2-(4-ethylpiperazin-1-yl)-3-methylphenyl]methyl]-octahydropyrrolo[3,4-c]pyrrole-2-carboxylate], for which the IC50 on ABHD6 [1] was 1000 to 10000 nM; at FAAH [2], > 10000 nM; on MAGL [3], 100 to 1000 nM. Moreover, the inhibition at 1 µM was < 25% at ABHD6 [4], < 25% on FAAH [5] and > 75% on MAGL [6].
As to `Cc1cccc(CN2CC3CN(C(=O)OC(C(F)(F)F)C(F)(F)F)CC3C2)c1N1CCN(C)CC1` (stereo not drawn) [Example 147, 1,1,1,3,3,3-hexafluoropropan-2-yl 5-[[3-methyl-2-(4-methylpiperazin-1-yl)phenyl]methyl]-octahydropyrrolo[3,4-c]pyrrole-2-carboxylate], the IC50 at ABHD6 [1] was > 10000 nM; at FAAH [2], > 10000 nM; at MAGL [3], 100 to 1000 nM. For the same molecule, the inhibition at 1 µM was < 25% on ABHD6 [4], < 25% on FAAH [5] and > 75% on MAGL [6].
On to `CC(=O)N1CCC(c2nn(C(C)C)cc2CN2CC3CN(C(=O)OC(C(F)(F)F)C(F)(F)F)CC3C2)CC1` (stereo not drawn) [Example 55, 1,1,1,3,3,3-Hexafluoropropan-2-yl 5-[[3-(1-acetylpiperidin-4-yl)-1-(propan-2-yl)-1H-pyrazol-4-yl]methyl]-octahydropyrrolo[3,4-c]pyrrole-2-carboxylate], for which the IC50 at ABHD6 [1] was 1000 to 10000 nM; on FAAH [2] it was > 10000 nM; on MAGL [3] it was 100 to 1000 nM. For the same molecule, the inhibition at 1 µM on ABHD6 [4] is < 25%; at FAAH [5], < 25%; at MAGL [6], > 75%.
Regarding `O=C(OC(C(F)(F)F)C(F)(F)F)N1CC2CN(Cc3ccc(Cl)cc3N3CCn4ncnc4C3)CC2C1` (stereo not drawn) [Example 34, 1,1,1,3,3,3-Hexafluoropropan-2-yl 5-(4-chloro-2-(5,6-dihydro-[1,2,4]triazolo[1,5-a]pyrazin-7(8H)-yl)benzyl)-hexahydropyrrolo[3,4-c]pyrrole-2(1H)-carboxylate], the IC50 is 100 to 1000 nM on ABHD6 [1], 1000 to 10000 nM at FAAH [2] and < 100 nM at MAGL [3]. For the same molecule, the inhibition at 1 µM was 25 to 75% on ABHD6 [4], 25 to 75% at FAAH [5] and > 75% at MAGL [6].
As for `Cc1c(CN2CC3CN(C(=O)OC(C(F)(F)F)C(F)(F)F)CC3C2)cccc1N1CCC2(CCOC2)C1` (stereo not drawn) [Example 46, 1,1,1,3,3,3-Hexafluoropropan-2-yl 5-[(2-methyl-3-[2-oxa-7-azaspiro[4.4]nonan-7-yl]phenyl)methyl]-octahydropyrrolo[3,4-c]pyrrole-2-carboxylate], the IC50 is 1000 to 10000 nM at ABHD6 [1], 1000 to 10000 nM at FAAH [2] and < 100 nM on MAGL [3]. The inhibition at 1 µM was < 25% on ABHD6 [4], 25 to 75% at FAAH [5] and > 75% on MAGL [6].
For `CCn1ncc(CN2CC3CN(C(=O)OC(C(F)(F)F)C(F)(F)F)CC3C2)c1C(=O)NCC1CC1` (stereo not drawn) [Example 179, 1,1,1,3,3,3-hexafluoropropan-2-yl 5-((5-((cyclopropylmethyl)carbamoyl)-1-ethyl-1H-pyrazol-4-yl)methyl)hexahydropyrrolo[3,4-c]pyrrole-2(1H)-carboxylate], the IC50 on ABHD6 [1] was 100 to 1000 nM; at FAAH [2] it was > 10000 nM; at MAGL [3], < 100 nM. In addition, the inhibition at 1 µM was 25 to 75% on ABHD6 [4], < 25% on FAAH [5] and > 75% on MAGL [6].
In the case of `Cc1cccc(CN2CC3CN(C(=O)OC(C(F)(F)F)C(F)(F)F)CC3C2)c1N1CCOCC1` (stereo not drawn) [Example 41, 1,1,1,3,3,3-Hexafluoropropan-2-yl 5-[[3-methyl-2-(morpholin-4-yl)phenyl]methyl]-octahydropyrrolo[3,4-c]pyrrole-2-carboxylate], the IC50 on ABHD6 [1] fell in the range of 1000 to 10000 nM; on FAAH [2] it was 1000 to 10000 nM; at MAGL [3], 100 to 1000 nM. In addition, the results for the inhibition at 1 µM at ABHD6 [4], on FAAH [5] and on MAGL [6] were < 25%, < 25% and > 75%, respectively.
Take `O=C(OC(C(F)(F)F)C(F)(F)F)N1CC2CN(Cc3cc(CN4CCCCC4)ccc3OC(F)(F)F)CC2C1` (stereo not drawn) [Example 189, 1,1,1,3,3,3-hexafluoropropan-2-yl 5-(5-(piperidin-1-ylmethyl)-2-(trifluoromethoxy)benzyl)hexahydropyrrolo[3,4-c]pyrrole-2(1H)-carboxylate]: the IC50 at ABHD6 [1] was in the range of 1000 to 10000 nM; on FAAH [2] it was 1000 to 10000 nM; at MAGL [3], 100 to 1000 nM. Also, the inhibition at 1 µM on ABHD6 [4] was < 25%; at FAAH [5], < 25%; at MAGL [6], > 75%.
Turning to `CC1COCCN1c1ccc(CN2CC3CN(C(=O)ON4C(=O)CCC4=O)CC3C2)c(Cl)c1` (stereo not drawn) [Example 102, 2,5-Dioxopyrrolidin-1-yl 5-[[2-chloro-4-(3-methylmorpholin-4-yl)phenyl]methyl]-octahydropyrrolo[3,4-c]pyrrole-2-carboxylate], the results for the IC50 on ABHD6 [1], on FAAH [2] and on MAGL [3] were 1000 to 10000 nM, 1000 to 10000 nM and 100 to 1000 nM, respectively. Further, the inhibition at 1 µM at ABHD6 [4] is < 25%; on FAAH [5], 25 to 75%; at MAGL [6], 25 to 75%.
Turning to `O=C(OC(C(F)(F)F)C(F)(F)F)N1CC2CN(Cc3ccc(C(F)F)cc3N3CCCCC3)CC2C1` (stereo not drawn) [Example 204, 1,1,1,3,3,3-hexafluoropropan-2-yl 5-(4-(difluoromethyl)-2-(piperidin-1-yl)benzyl)hexahydropyrrolo[3,4-c]pyrrole-2(1H)-carboxylate], the IC50 is 1000 to 10000 nM at ABHD6 [1], 1000 to 10000 nM at FAAH [2] and < 100 nM at MAGL [3]. The values for the inhibition at 1 µM on ABHD6 [4], on FAAH [5] and on MAGL [6] were < 25%, < 25% and > 75%, respectively.
For `Cc1cc(CN2CC3CN(C(=O)OC(C(F)(F)F)C(F)(F)F)CC3C2)n(C(C)C)n1` (stereo not drawn) [Example 59, 1,1,1,3,3,3-Hexafluoropropan-2-yl 5-[[3-methyl-1-(propan-2-yl)-1H-pyrazol-5-yl]methyl]-octahydropyrrolo[3,4-c]pyrrole-2-carboxylate], the IC50 at ABHD6 [1] was in the range of 1000 to 10000 nM; on FAAH [2], 1000 to 10000 nM; on MAGL [3] it was 100 to 1000 nM. Further, the inhibition at 1 µM on ABHD6 [4] is 25 to 75%; on FAAH [5], 25 to 75%; on MAGL [6] it was > 75%.
As for `Cc1c(CN2CC3CN(C(=O)ON4C(=O)CCC4=O)CC3C2)cccc1N1CCCCC1` (stereo not drawn) [Example 104, 2,5-Dioxopyrrolidin-1-yl 5-[[2-methyl-3-(piperidin-1-yl)phenyl]methyl]-octahydropyrrolo[3,4-c]pyrrole-2-carboxylate], the concentration for half-maximal inhibition (IC50) on ABHD6 [1] was 1000 to 10000 nM; on FAAH [2], 100 to 1000 nM; at MAGL [3] it was < 100 nM. For the same molecule, the results for the inhibition at 1 µM on ABHD6 [4], at FAAH [5] and on MAGL [6] were < 25%, > 75% and > 75%, respectively.
